One data set deals with DNA. Put plainly: Binding affinity to DNA (unknown origin) assessed as DNA intercalation by measuring amount of methyl green by spectrophotometry. The data set is classed as nucleic-acid assay, Homo sapiens.
The nature of data set [1]: Selectivity index, ratio of IC50 for rat L6 cells to IC50 for Plasmodium falciparum NF54. The class given is toxicity. The conditions noted are these: read-out: Ratio IC50.
Data set [2] in a line: Selectivity index, ratio of IC50 for rat L6 cells to IC50 for Plasmodium falciparum K1. The conditions noted are these: read-out: Ratio IC50. The class given is toxicity.
Data set [3] has as its system Hemozoin. Put plainly: Inhibition of beta-hematin formation.
Data set [4] can be described thus: Selectivity index, ratio of IC50 for human MRC5 to IC50 for Plasmodium falciparum Ghana. The class given is toxicity. To be noted: MRC5 cells, read-out: Ratio IC50.
For data set [5], the system named is Plasmodium falciparum. Put plainly: Antimalarial activity against erythrocytic Plasmodium falciparum NF54 assessed as parasite growth inhibition incubated for 48 hrs by [3H]-hypoxanthine incorporation assay. The class given is functional, organism-based.
The nature of data set [6]: Selectivity index, ratio of IC50 for rat L6 cells to IC50 for erythrocytic Plasmodium falciparum NF54. The data set is classed as toxicity. The conditions noted are these: read-out: Ratio IC50.
A short description of data set [7]: Cytotoxicity against rat L6 cells assessed as cell growth inhibition incubated for 70 hrs by alamar blue staining based microscopy. The class given is toxicity.
In data set [8] the test system is Plasmodium falciparum. In words: Antimalarial activity against erythrocytic chloroquine/pyrimethamine resistant Plasmodium falciparum K1 assessed as parasite growth inhibition incubated for 48 hrs by [3H]-hypoxanthine incorporation assay. The class given is functional, organism-based.
A short description of data set [9]: Selectivity index, ratio of IC50 for rat L6 cells to IC50 for erythrocytic Plasmodium falciparum K1. The conditions noted are these: read-out: Ratio IC50. The class given is toxicity.
For data set [10], the system named is Hemozoin. Put plainly: Inhibition of detergent-mediated beta-hematin formation incubated for 5 to 6 hrs by absorbance based assay.
A short description of data set [11]: Resistance index, ratio of IC50 for erythrocytic Plasmodium falciparum K1 to IC50 for erythrocytic Plasmodium falciparum NF54.
Another data set relates to Plasmodium berghei. Put plainly: Antimalarial activity against erythrocytic Plasmodium berghei ANKA infected in NMRI mouse assessed as reduction in parasitemia at 40 mg/kg, ip administered for 4 consecutive days measured after 24 hrs post last dose by FACS analysis relative to control. The data set is classed as functional. More on the design: scale not given: the % may be the effect or the level left.

Molecules are shown by their SMILES.

For `Cn1c2nc3ccccc3c-2cc2ccccc21` [NEOCRYPTOLEPINE], the figures for the IC50 on DNA and in the data set with Hemozoin [3] were 93 µM and 5.97 µM, respectively. Moreover, the selectivity ratio in data set [1] was 2; in data set [2], 1.9; in data set [4], 0.4.

Consider `C[C@H]1[C@H](OC(=O)CCC(=O)NCCCNc2c3ccccc3[n+](C)c3[nH]c4ccccc4c23)O[C@@H]2O[C@@]3(C)CC[C@H]4[C@H](C)CC[C@@H]1[C@@]24OO3`, for which the IC50 was found to be 0.45 nM in the data set on Plasmodium falciparum [5], 0.42 nM in the data set on Plasmodium falciparum [8] and 222 µM with Hemozoin [10]. The figures for the selectivity ratio in data set [6] and in data set [9] were 3400 and 3640, respectively. The IC50 at 70 h in data set [7] is 1530 nM. Further, in [11], the Ratio IC50 was 0.93. Besides, in the data set with Plasmodium berghei, the Activity amounted to 89.6%.
